Test results reported in US9198886B2, “Use of 2,5-dihydroxybenzene for the treatment of ocular diseases” (priority 2006, dated 2015).

What was measured:
Leishmania major = Leishmania major infection of the mouse paw pad; format: in vivo, BALB/c female mice
Source text: This model is based in the massive inoculation of Leishmania promatigotes in the mouse paw pad. Under these conditions, the parasite induces a progressive inflammation correlated with the multiplication of parasites at the site of inoculation. BALB/c strain female mice that developed severe and uncontrolled injuries were used (Foote S J, Handman E. Brief Funct Genomic Proteomic, 2005). This model has been used in pharmacology to monitor the therapeutic capacity of new leishmanicide compounds and the preventive capacity of potential vaccines against leishmaniasis ((Nelson K G et al. Antimicrob Agents Chemother. 2006).
The animals were inoculated with 5×10^6 of L. major promastigotes (strain Hervás) in 50 μL of PBS into the plantar pad of the right back paw. As negative control of the infection, a group of mice inoculated with 50 μL of PBS was used. The sizes of the lesions were measured every 7 days until the animals were sacrificed (week 9) using a Vernier caliper. The thickness of the right back paw (infected) and the left back paw (uninfected) of all the animals was measured at the base of the fifth toe. The progression of the inflammation is represented as the difference in thickness between the infected and the non-infected paws. […]

[1] = biological target: fibroblast growth factor-1 (FGF-1) (Homo sapiens, UniProt P05230); test: FGF-1 induced mitogenesis in quiescent Balb/c 3T3 fibroblasts; format: cell-based; settings: potassium salts, except 2-acetoxy-5-hydroxybenzene sulfonate as calcium salt
Description: The evaluated compounds were used in the form of potassium salt, except in the first case in which calcium salt was used. The experiments were carried out as described in Fernández-Tornero C et al. J Biol Chem, 2003.

Nakagawa angioblastoma = test: Topical cream in a child with Nakagawa angioblastoma (hemangioblastoma); format: in vivo, human; settings: cream 2.5%, topical twice a day, 1 month, one child
Source text: Photographs showing the effects of a topical treatment with a cream comprising 2,5-dihydroxybenzenesulfonic (DHBS) in a child suffering from Nakagawa angioblastoma.
The cream comprising 2,5-dihydroxybenzene sulfonic (2.5%) was topically applied twice a day during 1 month on the face of the child suffering from Nakagawa angioblastoma.

skeletal muscle lesions = test: Oral treatment of patients with skeletal muscle and tendon lesions (MRI, function); format: in vivo, human
Description: The capacity of a 2,5-dihydroxybenzene derivative, the 2,5-dihydroxybenzene sulfonic acid (DHBS) to effectively treat skeletal muscle lesions is shown herein. The efficacy is evident, not only in the images of conventional diagnosis that show the recovery of the muscular damage, but also there is a clear functional recovery of the affected limb.
The first patient's left quadriceps was broken by practicing sports. […] At that moment, the patient starts a daily oral treatment with 500 mg of 2,5-dihydroxybenzene sulfonic acid (DHBS) for two weeks. […] An observation that may be applied to the other cases that support this example.
Other patient has an hematoma and muscular breaking of the brachial biceps, as shown in the magnetic resonance image (MRI) of FIG. 12A. The hematoma can be appreciated externally (FIG. 13A) and the lesion, produced by professional practice (dancing) the day before the consultation, limits the elbow flexion (FIG. 13B) and extension (FIG. 13C).

endometriotic lesions = test: Rat model of endometriosis, histology of autologous implant; format: in vivo, Sprague-Dawley rats; settings: 200 mg/kg/day i.p., two weeks
Source text: In these rats, the epithelial layer (a) and the stroma (b) are clearly observed in the endometrium, while longitudinal (c) and circular (d) normal layers of smooth muscle cells are observed in the myometrium adjacent to the peritoneal tissue (e). […] The neovascularization observed in the uterine tissue implanted in control rats (shown with arrows in A) is not present in rats treated with 2,5-dihydroxybenzenesulfonic (DHBS) (C). • D) Magnification of the area marked with a box in C.
Sprague-Dawley rats were anesthetized as described (Fernández-Tornero C et al. J Biol Chem, 2003). Endometriotic lesions were induced using a known rat model of endometriosis (Vernon M W and Wilson E A. Fertil Steril, 1985). In summary, 2 mm fragments of the cervix were autologously implanted between branches in the mesenteric vascular tree. The rats were treated or not treated (control) daily during two weeks after the surgery with 2,5-dihydroxybenzene sulfonic acid (DHBS) (200 mg/kg; i.p.). Then, the rats were sacrificed and the endometrial ectopic tissue was removed to make its histological examination. […] This example illustrates the therapeutic activity of 2,5-dihydroxybenzene sulfonate (DHBS) in the treatment of endometriosis.

[2] = patient with brachial biceps breaking, 1500 mg/day p.o., 20 days
[3] = patient with broken left quadriceps, 500 mg/day p.o., two weeks

Chain of fibroblast growth factor-1 (FGF-1) (P05230 whole entry, species assumed): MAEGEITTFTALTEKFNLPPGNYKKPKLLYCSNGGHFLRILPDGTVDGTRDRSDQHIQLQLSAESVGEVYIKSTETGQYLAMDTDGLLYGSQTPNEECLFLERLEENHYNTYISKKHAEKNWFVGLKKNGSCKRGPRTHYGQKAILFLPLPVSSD

Compound	size of the lesion (paw thickness difference) (Leishmania major; 200 mg/kg/day i.p. from day 0 to week 9, effect from the third week post-infection)	FGF-1 induced mitogenesis [1]	increase of paw thickness (infected vs non-infected paw) (Leishmania major; potassium salt 200 mg/kg i.p. daily for 14 days from third week after infection, effect from the eighth week)	coloration of the hemangioblastoma lesion (Nakagawa angioblastoma)	MRI tendon lesion (skeletal muscle lesions; patient with Achilles tendon breaking, 1500 mg/day p.o., two months)	MRI size of lesion and hematoma (skeletal muscle lesions; [2])	elbow function (skeletal muscle lesions; [2])	MRI of quadriceps lesion and hematoma (skeletal muscle lesions; [3])	functional recovery of the leg (skeletal muscle lesions; [3])	time to functional recovery and resolution vs conventional treatments (antiinflammatories) (skeletal muscle lesions; [3])	MRI muscular lesion (skeletal muscle lesions; patient with semitendinous muscle lesion, 1500 mg/day p.o., 11 days)	histology of implanted tissue (hematoxylin-eosin) (endometriotic lesions)	neovascularization of implanted uterine tissue (endometriotic lesions)
CC(=O)Oc1ccc(OC(C)=O)c(S(=O)(=O)[O-])c1.[K+] [DABS, potassium 2,5-diacetoxybenzene sulfonate]	statistically significant reduction in the size of the lesion	Inhibition of FGF-1 induced mitogenesis was observed	–	–	–	–	–	–	–	–	–	–	–
O=S(=O)(O)c1cc(O)ccc1O [DHBS, 2,5-dihydroxybenzene sulfonic acid]	–	Inhibition of the mitogenesis	significant reduction in the increase of paw thickness	reduction in the intensity of the reddish coloration	marked reduction of said lesion	markedly reduces the size of the lesion and of the hematoma	recovers the functionality of the elbow flexion and extension	the hematoma can no longer be observed	able to extend the left leg almost completely	shorter period than the one required in the case of conventional treatments	reduced the muscular lesion	athrophy of the cervix tissue implanted	not present
